PubChem BioAssay AID1919017 (Molecular Pharmacology Branch, DTP, NCI, 2023)

System: SW1271 complex spheroids with HUVEC/MSC, growth, % test/control
Experiment: Anticancer human tumor SW1271 cell line growth inhibition [AhR];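 further: spheroids exposed to agents for 7 days before readout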
Conditions: for IC50: curve of first compound; for viability, T/C: stronger effect = lower value
Outline: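 Agents were dosed in half-log steps down from roughly clinical Cmax, or from 10 microM where Cmax was unknown, alone and with AhR antagonists. Read-out: percent test/control growth of tumor spheroids containing HUVEC and MSC stromal cells.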

[1] = second compound 0.1 µM, first compound 0.0316 µM
[2] = second compound 0.1 µM, first compound 0.1 µM
[3] = second compound 0.1 µM, first compound 0.316 µM
[4] = second compound 0.1 µM, first compound 1 µM
[5] = second compound 0.1 µM, first compound 3.16 µM
[6] = second compound 0.1 µM, first compound 10 µM
[7] = second compound 0.316 µM, first compound 0.0316 µM
[8] = second compound 0.316 µM, first compound 0.1 µM
[9] = second compound 0.316 µM, first compound 0.316 µM
[10] = second compound 0.316 µM, first compound 1 µM
[11] = second compound 0.316 µM, first compound 3.16 µM
[12] = second compound 0.316 µM, first compound 10 µM
[13] = second compound 1 µM, first compound 0.0316 µM
[14] = second compound 1 µM, first compound 0.1 µM
[15] = second compound 1 µM, first compound 0.316 µM
[16] = second compound 1 µM, first compound 1 µM
[17] = second compound 1 µM, first compound 3.16 µM
[18] = second compound 1 µM, first compound 10 µM
[19] = second compound 3.16 µM, first compound 0.0316 µM
[20] = second compound 3.16 µM, first compound 0.1 µM
[21] = second compound 3.16 µM, first compound 0.316 µM
[22] = second compound 3.16 µM, first compound 1 µM
[23] = second compound 3.16 µM, first compound 3.16 µM
[24] = second compound 3.16 µM, first compound 10 µM
[25] = second compound 10 µM, first compound 0.0316 µM
[26] = second compound 10 µM, first compound 0.1 µM
[27] = second compound 10 µM, first compound 0.316 µM
[28] = second compound 10 µM, first compound 1 µM
[29] = second compound 10 µM, first compound 3.16 µM
[30] = second compound 10 µM, first compound 10 µM

Compound `CC1(C)CCC(CN2CCN(c3ccc(C(=O)NS(=O)(=O)c4ccc(NCC5CCOCC5)c([N+](=O)[O-])c4)c(Oc4cnc5[nH]ccc5c4)c3)CC2)=C(c2ccc(Cl)cc2)C1` + CC(CO)NC(=O)c1cc(-c2ccc(Cl)cc2)nn(-c2cnn(C)c2)c1=O has an IC50 (second compound 0.1 µM) greater than 10 µM, an IC50 (second compound 0.316 µM) greater than 10 µM and an IC50 (second compound 1 µM) greater than 10 µM. It also gave an IC50 (second compound 3.16 µM) greater than 10 µM, an IC50 (second compound 10 µM) greater than 10 µM and a viability, T/C [1] of 85.8%. It also gave a viability, T/C [2] of 90.7%, a viability, T/C [3] of 107% and a viability, T/C [4] of 98.6%. For the same compound, the viability, T/C [5] was 82.7%, the viability, T/C [6] was 71.5% and the viability, T/C [7] was 84.4%. The viability, T/C [8] was 73%, the viability, T/C [9] was 71.8% and the viability, T/C [10] was 84.2%. It also gave a viability, T/C [11] of 100%, a viability, T/C [12] of 78.3% and a viability, T/C [13] of 91%. It also gave a viability, T/C [14] of 89.3%, a viability, T/C [15] of 78.8% and a viability, T/C [16] of 80.4%. For the same compound, the viability, T/C [17] was 85%, the viability, T/C [18] was 86.3% and the viability, T/C [19] was 68%. The viability, T/C [20] was 70.2%, the viability, T/C [21] was 91.4% and the viability, T/C [22] was 82.5%. For the same compound, the viability, T/C [23] was 60.7%, the viability, T/C [24] was 88.6% and the viability, T/C [25] was 70.8%. The viability, T/C [26] was 69.3%, the viability, T/C [27] was 74.7% and the viability, T/C [28] was 54.8%. For the same compound, the viability, T/C [29] was 78.2% and the viability, T/C [30] was 78.2%.
Compound `CCN(c1cc(-c2ccc(CN3CCOCC3)cc2)cc(C(=O)NCc2c(C)cc(C)[nH]c2=O)c1C)C1CCOCC1` + CC(CO)NC(=O)c1cc(-c2ccc(Cl)cc2)nn(-c2cnn(C)c2)c1=O has an IC50 (second compound 0.1 µM) greater than 3 µM, an IC50 (second compound 0.316 µM) greater than 3 µM and an IC50 (second compound 1 µM) greater than 3 µM. The IC50 (second compound 3.16 µM) was greater than 3 µM, the IC50 (second compound 10 µM) was greater than 3 µM and the viability, T/C (second compound 0.1 µM, first compound 0.00949 µM) was 122%. It also gave a viability, T/C (second compound 0.1 µM, first compound 0.03 µM) of 117%, a viability, T/C (second compound 0.1 µM, first compound 0.0949 µM) of 106% and a viability, T/C (second compound 0.1 µM, first compound 0.3 µM) of 97.2%. It also gave a viability, T/C (second compound 0.1 µM, first compound 0.949 µM) of 102%, a viability, T/C (second compound 0.1 µM, first compound 3 µM) of 91.8% and a viability, T/C (second compound 0.316 µM, first compound 0.00949 µM) of 101%. The viability, T/C (second compound 0.316 µM, first compound 0.03 µM) was 108%, the viability, T/C (second compound 0.316 µM, first compound 0.0949 µM) was 120% and the viability, T/C (second compound 0.316 µM, first compound 0.3 µM) was 113%. It also gave a viability, T/C (second compound 0.316 µM, first compound 0.949 µM) of 110%, a viability, T/C (second compound 0.316 µM, first compound 3 µM) of 112% and a viability, T/C (second compound 1 µM, first compound 0.00949 µM) of 86.6%. The viability, T/C (second compound 1 µM, first compound 0.03 µM) was 105%, the viability, T/C (second compound 1 µM, first compound 0.0949 µM) was 119% and the viability, T/C (second compound 1 µM, first compound 0.3 µM) was 94.5%. For the same compound, the viability, T/C (second compound 1 µM, first compound 0.949 µM) was 105%, the viability, T/C (second compound 1 µM, first compound 3 µM) was 110% and the viability, T/C (second compound 3.16 µM, first compound 0.00949 µM) was 91.9%. It also gave a viability, T/C (second compound 3.16 µM, first compound 0.03 µM) of 88%, a viability, T/C (second compound 3.16 µM, first compound 0.0949 µM) of 103% and a viability, T/C (second compound 3.16 µM, first compound 0.3 µM) of 89.3%. The viability, T/C (second compound 3.16 µM, first compound 0.949 µM) was 106%, the viability, T/C (second compound 3.16 µM, first compound 3 µM) was 90.3% and the viability, T/C (second compound 10 µM, first compound 0.00949 µM) was 91.7%. For the same compound, the viability, T/C (second compound 10 µM, first compound 0.03 µM) was 94.5%, the viability, T/C (second compound 10 µM, first compound 0.0949 µM) was 81.3% and the viability, T/C (second compound 10 µM, first compound 0.3 µM) was 84.9%. For the same compound, the viability, T/C (second compound 10 µM, first compound 0.949 µM) was 74.1% and the viability, T/C (second compound 10 µM, first compound 3 µM) was 79.4%.
Compound `COc1cc(Nc2ncc3c(n2)-c2ccc(Cl)cc2C(c2c(F)cccc2OC)=NC3)ccc1C(=O)O` + CC(CO)NC(=O)c1cc(-c2ccc(Cl)cc2)nn(-c2cnn(C)c2)c1=O has an IC50 (second compound 0.1 µM) of 6.12 µM, an IC50 (second compound 0.316 µM) greater than 10 µM and an IC50 (second compound 1 µM) greater than 10 µM. It also gave an IC50 (second compound 3.16 µM) greater than 10 µM, an IC50 (second compound 10 µM) of 3.59 µM and a viability, T/C [1] of 77.5%. It also gave a viability, T/C [2] of 73.2%, a viability, T/C [3] of 82.6% and a viability, T/C [4] of 79.4%. It also gave a viability, T/C [5] of 58.1%, a viability, T/C [6] of 44% and a viability, T/C [7] of 61.6%. For the same compound, the viability, T/C [8] was 58%, the viability, T/C [9] was 76.6% and the viability, T/C [10] was 66%. The viability, T/C [11] was 52.5%, the viability, T/C [12] was 44.5% and the viability, T/C [13] was 59.7%. For the same compound, the viability, T/C [14] was 67.1%, the viability, T/C [15] was 72.7% and the viability, T/C [16] was 73.8%. The viability, T/C [17] was 71.5%, the viability, T/C [18] was 47.4% and the viability, T/C [19] was 55.7%. It also gave a viability, T/C [20] of 55.4%, a viability, T/C [21] of 60.3% and a viability, T/C [22] of 61.6%. For the same compound, the viability, T/C [23] was 56.9%, the viability, T/C [24] was 41.8% and the viability, T/C [25] was 66.6%. It also gave a viability, T/C [26] of 58.7%, a viability, T/C [27] of 70.2% and a viability, T/C [28] of 54.4%. It also gave a viability, T/C [29] of 52.2% and a viability, T/C [30] of 38.9%.
`Cn1ncnc1C1c2n[nH]c(=O)c3cc(F)cc(c23)NC1c1ccc(F)cc1` (stereo not given) + CC(CO)NC(=O)c1cc(-c2ccc(Cl)cc2)nn(-c2cnn(C)c2)c1=O was tested, and the IC50 (second compound 0.1 µM) was greater than 0.1 µM, the IC50 (second compound 0.316 µM) was greater than 0.1 µM and the IC50 (second compound 1 µM) was greater than 0.1 µM. It also gave an IC50 (second compound 3.16 µM) greater than 0.1 µM, an IC50 (second compound 10 µM) greater than 0.1 µM and a viability, T/C (second compound 0.1 µM, first compound 0.000316 µM) of 111%. The viability, T/C (second compound 0.1 µM, first compound 0.001 µM) was 104%, the viability, T/C (second compound 0.1 µM, first compound 0.00316 µM) was 95.8% and the viability, T/C (second compound 0.1 µM, first compound 0.01 µM) was 98%. The viability, T/C [1] was 84%, the viability, T/C [2] was 107% and the viability, T/C (second compound 0.316 µM, first compound 0.000316 µM) was 84.1%. It also gave a viability, T/C (second compound 0.316 µM, first compound 0.001 µM) of 87.1%, a viability, T/C (second compound 0.316 µM, first compound 0.00316 µM) of 104% and a viability, T/C (second compound 0.316 µM, first compound 0.01 µM) of 89%. For the same compound, the viability, T/C [7] was 85.2%, the viability, T/C [8] was 79.2% and the viability, T/C (second compound 1 µM, first compound 0.000316 µM) was 96.2%. It also gave a viability, T/C (second compound 1 µM, first compound 0.001 µM) of 101%, a viability, T/C (second compound 1 µM, first compound 0.00316 µM) of 73.7% and a viability, T/C (second compound 1 µM, first compound 0.01 µM) of 81.2%. For the same compound, the viability, T/C [13] was 74.1%, the viability, T/C [14] was 103% and the viability, T/C (second compound 3.16 µM, first compound 0.000316 µM) was 79.7%. It also gave a viability, T/C (second compound 3.16 µM, first compound 0.001 µM) of 73%, a viability, T/C (second compound 3.16 µM, first compound 0.00316 µM) of 71.4% and a viability, T/C (second compound 3.16 µM, first compound 0.01 µM) of 89.1%. The viability, T/C [19] was 84.5%, the viability, T/C [20] was 77.2% and the viability, T/C (second compound 10 µM, first compound 0.000316 µM) was 71.8%. The viability, T/C (second compound 10 µM, first compound 0.001 µM) was 74.6%, the viability, T/C (second compound 10 µM, first compound 0.00316 µM) was 61.4% and the viability, T/C (second compound 10 µM, first compound 0.01 µM) was 89.4%. It also gave a viability, T/C [25] of 75.9% and a viability, T/C [26] of 76.1%.
For `NS(=O)(=O)OCC1CC(n2ccc3c(NC4CCc5ccccc54)ncnc32)CC1O` (stereo not given) + CC(CO)NC(=O)c1cc(-c2ccc(Cl)cc2)nn(-c2cnn(C)c2)c1=O, the IC50 (second compound 0.1 µM) was 3.42 µM, the IC50 (second compound 0.316 µM) was 2.91 µM and the IC50 (second compound 1 µM) was 3.16 µM. The IC50 (second compound 3.16 µM) was greater than 10 µM, the IC50 (second compound 10 µM) was greater than 10 µM and the viability, T/C [1] was 112%. It also gave a viability, T/C [2] of 133%, a viability, T/C [3] of 96.5% and a viability, T/C [4] of 65.9%. For the same compound, the viability, T/C [5] was 44.6%, the viability, T/C [6] was 51.8% and the viability, T/C [7] was 127%. The viability, T/C [8] was 115%, the viability, T/C [9] was 92.5% and the viability, T/C [10] was 58.5%. For the same compound, the viability, T/C [11] was 47.3%, the viability, T/C [12] was 49.7% and the viability, T/C [13] was 125%. It also gave a viability, T/C [14] of 127%, a viability, T/C [15] of 118% and a viability, T/C [16] of 69.2%. The viability, T/C [17] was 48.2%, the viability, T/C [18] was 50.6% and the viability, T/C [19] was 133%. The viability, T/C [20] was 129%, the viability, T/C [21] was 108% and the viability, T/C [22] was 69.2%. It also gave a viability, T/C [23] of 54%, a viability, T/C [24] of 59.3% and a viability, T/C [25] of 86.2%. The viability, T/C [26] was 104%, the viability, T/C [27] was 103% and the viability, T/C [28] was 76%. For the same compound, the viability, T/C [29] was 62.6% and the viability, T/C [30] was 63.6%.
